Assay results from publication PMC9695823, “Regioselective Synthesis of 6-O-Acetyl Dieckol and Its Selective Cytotoxicity against Non-Small-Cell Lung Cancer Cells” (Marine Drugs, 2022).

Key:
[1] = parameters: method as in PMID 35542614; details: estimated; cited from earlier work
NIH/3T3 cells = test: MTT cytotoxicity assay against normal cell line NIH/3T3; assay type: cell-based; details: 24 h treatment, 0-500 μM, mean ± SD, listed as DK
Procedure: (§1) The cytotoxicity of DK and its various acyl and alkyl derivatives was assessed using the MTT assay against a non-small-lung cancer cell line (A549) and a normal cell line (NIH/3T3) at […] different concentrations (0, 0.005, 0.05, 0.5, 5, 50 and 500 μM). Among the newly synthesized acyl derivatives, the 6-O-acetyl (2) and 6-O-benzoyl (3) derivatives were included in this study, while the 6-O-propionyl (4) and 6-O-toluoyl (5) derivatives, which had been considered to be very similar to 6-O-acetyl (2) and 6-O-benzoyl (3) derivatives, respectively, were excluded from this study. […] The methyl and benzyl derivatives (6 and 7) were selected in parallel with acetyl and benzoyl (2 and 3) derivatives, respectively, to identify any impact of substitution chemistry (via sp^2 vs. sp^3 carbon in acylations and alkylations, respectively) and steric effect in cytotoxicity. Methoxymethyl (8), 3-(ethoxycarbonyl)propyl (9) and hydroxypropyl (10) derivatives were selected to determine the size effect of moderately polar substituents with a common heteroatom such as oxygen.
(§2) The non-small-cell lung cancer cell line A549 and the normal cell line NIH/3T3 were purchased from Korea Cell Line Research Foundation (Seoul, Korea). The cell lines were cultured in Dulbecco’s modified Eagle’s medium (DMEM) supplemented with 10% FBS and 1% penicillin–streptomycin at 37 °C with 5% CO2.
(§3) The cytotoxicity of DK and its derivatives was assessed by MTT assay, based on the reduction of MTT into insoluble formazan crystals by metabolically active cells. Briefly, the cells ([…]) were seeded in each well containing culture medium in a 96-well plate. After the incubation for 24 h at 37 °C, various concentrations of DK and its derivatives were added. […] The optical density was measured at 540 nm using a microplate spectrophotometer (Epoch; Agilent Technologies, Inc. Santa Clara, CA, USA). […] The IC50 values of DK and its derivatives were determined for the different cell lines by nonlinear regression using GraphPad Prism v6.0 software (La Jolla, CA, USA).

A549 cells = test: MTT cytotoxicity assay against A549 non-small-cell lung cancer cells; assay type: cell-based; details: for IC50: Homo sapiens, A549
Procedure: as §1, §2
The cytotoxicity of DK and its derivatives was assessed by MTT assay, based on the reduction of MTT into insoluble formazan crystals by metabolically active cells. Briefly, the cells ([…]) were seeded in each well containing culture medium in a 96-well plate. After the incubation for 24 h at 37 °C, various concentrations of DK and its derivatives were added. After 24 h, 10 μL of the MTT reagent ([…]) was added, and the plates were incubated for an additional 2 h. The medium was discarded, and the formazan blue, which was formed in the cells, was dissolved in […] of dimethyl sulfoxide (DMSO). The optical density was measured at 540 nm using a microplate spectrophotometer (Epoch; Agilent Technologies, Inc. Santa Clara, CA, USA). The IC50 corresponded to a 50% decrease in the number of cells compared to the untreated control. The results are represented as the mean of three independent experiments. The IC50 values of DK and its derivatives were determined for the different cell lines by nonlinear regression using GraphPad Prism v6.0 software (La Jolla, CA, USA).

[2] = MTT cytotoxicity assay against normal cell line NIH/3T3; assay type: cell-based; details: mouse, NIH/3T3 normal cells, 24 h treatment, 0-500 μM, mean ± SD
Procedure: as §1, §2, §3

[3] = tested on: NSCLC (A549) cells vs. normal (NIH/3T3) cells; test: Selectivity index, cytotoxicity A549 vs. NIH/3T3; assay type: cell-based; details: SI = IC50 (NIH/3T3 cells)/IC50 (A549 cells)
Excerpt: The ideal anticancer drug should have a relatively high toxic concentration on normal cells with a very low active concentration on cancer cells. In this study, the cancer-selective cytotoxicity of DK derivatives has been studied for the first time. To address this selectivity issue, the selectivity index (SI), which is defined as the ratio of the toxic concentration of a sample against its effective bioactive concentration according to Equation (1) (see Section 4.7), was used. […] An SI value ≥ 10 was assumed to belong to a selected potential sample that can be further investigated. Therefore, the acetyl and hydroxypropyl DKs would be highly considered for further investigations as potential anti-NSCLC chemotherapeutic agents.
The selectivity index (SI) was determined to assess the selective cytotoxicity of the DK derivatives against NSCLC (A549) cells vs. normal (NIH/3T3) cells based on Equation (1):SI = IC50 (NIH/3T3 cells)/IC50 (A549 cells)(1)

[4] = MTT, 24 h treatment, 0-500 μM, mean ± SD

SMILES | lowest pKa [1] | Cytotoxicity (IC50) NIH/3T3 (NIH/3T3 cells) | Cytotoxicity (IC50) A549 (A549 cells; MTT, 24 h treatment, 0-500 μM, mean ± SD, listed as DK) | IC50 at 24 h [2] [µM] | times higher activity than 6-O-benzyl DK (A549 cells; A549 cells) [times] | IC50 (A549 cells; [4]) [µM] | SI Value (selectivity index) [3] | fold increase in IC50 compared with acetyl DK (A549 cells; A549 cells) [fold]
Oc1cc(O)cc(Oc2c(O)cc(O)c3c2Oc2c(O)cc(Oc4c(O)cc(Oc5c(O)cc(O)c6c5Oc5c(O)cc(O)cc5O6)cc4O)cc2O3)c1 [compound 1, Dieckol] | 5.0 | did not show detectable cytotoxicity | did not show detectable cytotoxicity |  |  |  |  | 
CC(=O)Oc1cc(O)cc2c1Oc1c(Oc3cc(O)c(Oc4cc(O)c5c(c4)Oc4c(O)cc(O)c(Oc6cc(O)cc(O)c6)c4O5)c(O)c3)c(O)cc(O)c1O2 [compound 2, 6-O-acetyl dieckol] |  |  |  | 481 | 120 | 7.02 ± 1.53 | 68.58 | 
O=C(Oc1cc(O)cc2c1Oc1c(Oc3cc(O)c(Oc4cc(O)c5c(c4)Oc4c(O)cc(O)c(Oc6cc(O)cc(O)c6)c4O5)c(O)c3)c(O)cc(O)c1O2)c1ccccc1 [compound 3, 6-O-benzoyl dieckol] |  |  |  |  |  | 641 ± 17.9 |  | 91
OCCCOc1cc(O)cc2c1Oc1c(Oc3cc(O)c(Oc4cc(O)c5c(c4)Oc4c(O)cc(O)c(Oc6cc(O)cc(O)c6)c4O5)c(O)c3)c(O)cc(O)c1O2 [compound 10] |  |  |  | 563 ± 51.8 |  | 13.1 ± 5.06 | 43.07 | 
